Experimental findings from patent publication US20230210999A1, “TARGETED PROTEASE DEGRADATION (TED) PLATFORM” (EUBULUS BIOTHERAPEUTICS INC., priority 2020, published 2023) are described below.

The first assay deals with NCIH82 cells. Nature of the assay: Cell proliferation experiment, NCI-H82. The format is cell-based, human. The settings on record: Homo sapiens, NCI-H82, 72 h, NCIH82 cells, 72 h; read-out: Inhibitory activity IC50 of tested compounds on NCIH82 cells. In a few lines:
(§1)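 Alamar blue fluorescence after 72 h of compound exposure; IC50 from 4-parameter fit (Min, Max, Slope). Cells passaged ≥2 times, log-phase, 96-well, duplicate wells, 5-fold serial dilutions.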
On to `CC[C@@H]1C(=O)N(C)c2cnc(Nc3ccc(C(=O)NC4CCN(CCOCCNCCC#Cc5cccc6c5CN(C5CCC(=O)NC5=O)C6=O)CC4)cc3OC)nc2N1C1CCCC1` (stereo partly shown) [Compound 874], for which the IC50 was not above 1 µM.

As to `CC[C@@H]1C(=O)N(C)c2cnc(Nc3ccc(C(=O)NCCCOCCOCCCN(C)CCC#Cc4cccc5c4CN(C4CCC(=O)NC4=O)C5=O)cc3OC)nc2N1C1CCCC1` (stereo partly shown) [Compound 883], the IC50 is not above 1 µM.

On to `CC[C@@H]1C(=O)N(C)c2cnc(Nc3ccc(C(=O)NCCCOCCOCCNCCC#Cc4cccc5c4CN(C4CCC(=O)NC4=O)C5=O)cc3OC)nc2N1C1CCCC1` (stereo partly shown) [Compound 890], for which the IC50 is not above 1 µM.

As to `CC[C@@H]1C(=O)N(C)c2cnc(Nc3ccc(C(=O)NCCC#Cc4cccc5c4CN(C4CCC(=O)NC4=O)C5=O)cc3OC)nc2N1C1CCCC1` (stereo partly shown) [Compound 891], the IC50 is not above 1 µM.

The subject of a further assay is THP-1 cells. Nature of the assay: Cell proliferation experiment, THP-1. The settings on record: Homo sapiens, 72 h, read-out: Inhibitory activity IC50 of tested compounds on THP-1 cells. The format is cell-based. As to the method: (§2) Reagents: RPMI-1640 medium, McCoy's 5A medium, IMDM medium, MEM medium, L-15 medium, fetal bovine serum. Penicillin-Streptomycin double antibody, trypsin, etc., 2-mercaptoethanol, NEAA, pyruvate, etc.
(§3) The cells were cultured in conventional ways, and the cells should be passed at least 2 generations before plating. Cells at the logarithmic growth phase were collected, prepared into single cell suspensions and counted. The concentration of cells was adjusted to the desired concentration, and cells were inoculated into a 96-well cell culture plate at 100 μl per well. 100 μL of complete medium of the test compound were added to each well, set up 2 duplicate wells for each concentration, and diluted with a 5-fold gradient, and continued to culture for 72 h. All cells were subjected to IC50 test for corresponding samples. The experimental results are shown in Test Example 4.
(§4) The fluorescence intensity of each well was detected using the Alarm blue method, and IC50 was calculated.
(§5) IC50 was calculated according to the following formula:
(§6) Y=Max+(Min−Max)/[1+(X/IC50)×Slope]
(§7) wherein Min, Max and Slope represent the minimum, maximum and slope respectively.
On to `CC[C@@H]1C(=O)N(C)c2cnc(Nc3ccc(C(=O)NC4CCN(CCOCCNCCC#Cc5cccc6c5CN(C5CCC(=O)NC5=O)C6=O)CC4)cc3OC)nc2N1C1CCCC1` (stereo partly shown) [Compound 874], for which the IC50 was not above 1 µM.

As to `CC[C@@H]1C(=O)N(C)c2cnc(Nc3ccc(C(=O)NCCCOCCOCCCN(C)CCC#Cc4cccc5c4CN(C4CCC(=O)NC4=O)C5=O)cc3OC)nc2N1C1CCCC1` (stereo partly shown) [Compound 883], the IC50 was not above 1 µM.

Another assay relates to Daudi cells. Nature of the assay: Cell proliferation experiment, Daudi. The assay is classed as cell-based, human. The settings on record: Homo sapiens, Daudi, 72 h, Daudi cells, 72 h; read-out: Inhibitory activity IC50 of tested compounds on Daudi cells. In a few lines: as §1
Regarding `CC[C@@H]1C(=O)N(C)c2cnc(Nc3ccc(C(=O)NC4CCN(CCOCCNCCC#Cc5cccc6c5CN(C5CCC(=O)NC5=O)C6=O)CC4)cc3OC)nc2N1C1CCCC1` (stereo partly shown) [Compound 874], the IC50 lay within 0.1 to 1 µM.

Regarding `CC[C@@H]1C(=O)N(C)c2cnc(Nc3ccc(C(=O)NCCCOCCOCCCN(C)CCC#Cc4cccc5c4CN(C4CCC(=O)NC4=O)C5=O)cc3OC)nc2N1C1CCCC1` (stereo partly shown) [Compound 883], the IC50 is not above 0.1 µM.

`CC[C@@H]1C(=O)N(C)c2cnc(Nc3ccc(C(=O)NCCCOCCOCCNCCC#Cc4cccc5c4CN(C4CCC(=O)NC4=O)C5=O)cc3OC)nc2N1C1CCCC1` (stereo partly shown) [Compound 890]: the IC50 was not above 0.1 µM.

For a further assay, the system named is MOL4-4 cells. Description: Cell proliferation experiment, MOL4-4. The format is cell-based. As to conditions: Homo sapiens, 72 h, read-out: Inhibitory activity IC50 of tested compounds on MOL4-4 cells. The method, then:
as §2, §3, §4, §5, §6, §7
As to `CC[C@@H]1C(=O)N(C)c2cnc(Nc3ccc(C(=O)NCCCOCCOCCCN(C)CCC#Cc4cccc5c4CN(C4CCC(=O)NC4=O)C5=O)cc3OC)nc2N1C1CCCC1` (stereo partly shown) [Compound 883], the IC50 was not above 0.1 µM.

The subject of another assay is HT-29 cells. Description: Cell proliferation experiment, HT-29. The assay is classed as cell-based. The settings on record: Homo sapiens; HT-29 cells, 72 h; read-out: Inhibitory activity IC50 of tested compounds on HT-29 cells. In outline:
as §1
Regarding `CC[C@@H]1C(=O)N(C)c2cnc(Nc3ccc(C(=O)NC4CCN(CCOCCNCCC#Cc5cccc6c5CN(C5CCC(=O)NC5=O)C6=O)CC4)cc3OC)nc2N1C1CCCC1` (stereo partly shown) [Compound 874], the IC50 is 0.3 to 1 µM.

With `CC[C@@H]1C(=O)N(C)c2cnc(Nc3ccc(C(=O)NCCCOCCOCCCN(C)CCC#Cc4cccc5c4CN(C4CCC(=O)NC4=O)C5=O)cc3OC)nc2N1C1CCCC1` (stereo partly shown) [Compound 883], the IC50 fell in the range of 0.3 to 1 µM.

For the molecule `CC[C@@H]1C(=O)N(C)c2cnc(Nc3ccc(C(=O)NCCCOCCOCCNCCC#Cc4cccc5c4CN(C4CCC(=O)NC4=O)C5=O)cc3OC)nc2N1C1CCCC1` (stereo partly shown) [Compound 890], the IC50 lay in the range of 0.3 to 1 µM.

`CC[C@@H]1C(=O)N(C)c2cnc(Nc3ccc(C(=O)NCCC#Cc4cccc5c4CN(C4CCC(=O)NC4=O)C5=O)cc3OC)nc2N1C1CCCC1` (stereo partly shown) [Compound 891]: the IC50 lay in the range of 0.3 to 1 µM.

The subject of the next assay is MDA-MB-231 cells. Description: Cell proliferation experiment, MDA-MB-231. The assay is classed as cell-based, human. As to conditions: Homo sapiens, MDA-MB-231, 72 h, MDA-MB-231 cells, 72 h; read-out: Inhibitory activity IC50 of tested compounds on MDA-MB-231 cells. In outline:
as §1
Regarding `CC[C@@H]1C(=O)N(C)c2cnc(Nc3ccc(C(=O)NCCCOCCOCCCN(C)CCC#Cc4cccc5c4CN(C4CCC(=O)NC4=O)C5=O)cc3OC)nc2N1C1CCCC1` (stereo partly shown) [Compound 883], the IC50 was not above 0.5 µM.

`CC[C@@H]1C(=O)N(C)c2cnc(Nc3ccc(C(=O)NCCCOCCOCCNCCC#Cc4cccc5c4CN(C4CCC(=O)NC4=O)C5=O)cc3OC)nc2N1C1CCCC1` (stereo partly shown) [Compound 890]: the IC50 is not above 0.5 µM.

In a further assay the test system is Hela cells. Description: Cell proliferation experiment, Hela. The assay is classed as cell-based. As to conditions: Homo sapiens, 72 h, read-out: Inhibitory activity IC50 of tested compounds on Hela cells. As to the method:
as §2, §3, §4, §5, §6, §7
As to `CC[C@@H]1C(=O)N(C)c2cnc(Nc3ccc(C(=O)NCCCOCCOCCCN(C)CCC#Cc4cccc5c4CN(C4CCC(=O)NC4=O)C5=O)cc3OC)nc2N1C1CCCC1` (stereo partly shown) [Compound 883], the IC50 was not above 1 µM.

A further assay has as its system U-87MG cells. Nature of the assay: Cell proliferation experiment, U-87MG. The format is cell-based. The settings on record: Homo sapiens; U-87MG cells, 72 h; read-out: Inhibitory activity IC50 of tested compounds on U-87MG cells. In outline:
as §1
On to `CC[C@@H]1C(=O)N(C)c2cnc(Nc3ccc(C(=O)NC4CCN(CCOCCNCCC#Cc5cccc6c5CN(C5CCC(=O)NC5=O)C6=O)CC4)cc3OC)nc2N1C1CCCC1` (stereo partly shown) [Compound 874], for which the IC50 lay within 0.1 to 0.5 µM.

On to `CC[C@@H]1C(=O)N(C)c2cnc(Nc3ccc(C(=O)NCCCOCCOCCCN(C)CCC#Cc4cccc5c4CN(C4CCC(=O)NC4=O)C5=O)cc3OC)nc2N1C1CCCC1` (stereo partly shown) [Compound 883], for which the IC50 is not above 0.1 µM.

As for `CC[C@@H]1C(=O)N(C)c2cnc(Nc3ccc(C(=O)NCCCOCCOCCNCCC#Cc4cccc5c4CN(C4CCC(=O)NC4=O)C5=O)cc3OC)nc2N1C1CCCC1` (stereo partly shown) [Compound 890], the IC50 was in the range of 0.1 to 0.5 µM.

Regarding `CC[C@@H]1C(=O)N(C)c2cnc(Nc3ccc(C(=O)NCCC#Cc4cccc5c4CN(C4CCC(=O)NC4=O)C5=O)cc3OC)nc2N1C1CCCC1` (stereo partly shown) [Compound 891], the IC50 fell in the range of 0.1 to 0.5 µM.

The subject of a further assay is HUVEC cells. Nature of the assay: Cell proliferation experiment, HUVEC. The assay is classed as cell-based. As to conditions: Homo sapiens, 72 h, read-out: Inhibitory activity IC50 of tested compounds on HUVEC cells. As to the method:
as §2, §3, §4, §5, §6, §7
As to `CC[C@@H]1C(=O)N(C)c2cnc(Nc3ccc(C(=O)NCCCOCCOCCCN(C)CCC#Cc4cccc5c4CN(C4CCC(=O)NC4=O)C5=O)cc3OC)nc2N1C1CCCC1` (stereo partly shown) [Compound 883], the IC50 was not above 1 µM.

As to `CC[C@@H]1C(=O)N(C)c2cnc(Nc3ccc(C(=O)NCCCOCCOCCNCCC#Cc4cccc5c4CN(C4CCC(=O)NC4=O)C5=O)cc3OC)nc2N1C1CCCC1` (stereo partly shown) [Compound 890], the IC50 was not above 1 µM.

For another assay, the system named is HL-60 cells. Description: Cell proliferation experiment, HL-60. The assay is classed as cell-based. As to conditions: Homo sapiens, 72 h, read-out: Inhibitory activity IC50 of tested compounds on HL-60 cells. The method, then: as §2, §3, §4, §5, §6, §7
As to `CC[C@@H]1C(=O)N(C)c2cnc(Nc3ccc(C(=O)NC4CCN(CCOCCNCCC#Cc5cccc6c5CN(C5CCC(=O)NC5=O)C6=O)CC4)cc3OC)nc2N1C1CCCC1` (stereo partly shown) [Compound 874], the IC50 is not above 1 µM.

`CC[C@@H]1C(=O)N(C)c2cnc(Nc3ccc(C(=O)NCCCOCCOCCCN(C)CCC#Cc4cccc5c4CN(C4CCC(=O)NC4=O)C5=O)cc3OC)nc2N1C1CCCC1` (stereo partly shown) [Compound 883]: the IC50 was not above 1 µM.

On to `CC[C@@H]1C(=O)N(C)c2cnc(Nc3ccc(C(=O)NCCCOCCOCCNCCC#Cc4cccc5c4CN(C4CCC(=O)NC4=O)C5=O)cc3OC)nc2N1C1CCCC1` (stereo partly shown) [Compound 890], for which the IC50 was not above 1 µM.

Turning to `CC[C@@H]1C(=O)N(C)c2cnc(Nc3ccc(C(=O)NCCC#Cc4cccc5c4CN(C4CCC(=O)NC4=O)C5=O)cc3OC)nc2N1C1CCCC1` (stereo partly shown) [Compound 891], the IC50 was not above 1 µM.

The subject of the next assay is MV4;11 cells. Description: Cell proliferation experiment (Alamar blue, 72 h), MV4;11. The format is cell-based, human. As to conditions: Homo sapiens, MV4-11, 72 h, MV4;11 cells, 72 h; read-out: Inhibitory activity IC50 of tested compounds on MV4;11 cells. In outline:
as §1
`CC[C@@H]1C(=O)N(C)c2cnc(Nc3ccc(C(=O)NC4CCN(CCOCCNCCC#Cc5cccc6c5CN(C5CCC(=O)NC5=O)C6=O)CC4)cc3OC)nc2N1C1CCCC1` (stereo partly shown) [Compound 874]: the IC50 was not above 0.1 µM.

Regarding `CC[C@@H]1C(=O)N(C)c2cnc(Nc3ccc(C(=O)NCCCOCCOCCCN(C)CCC#Cc4cccc5c4CN(C4CCC(=O)NC4=O)C5=O)cc3OC)nc2N1C1CCCC1` (stereo partly shown) [Compound 883], the concentration for half-maximal inhibition (IC50) was not above 0.1 µM.

For `CC[C@@H]1C(=O)N(C)c2cnc(Nc3ccc(C(=O)NCCCOCCOCCNCCC#Cc4cccc5c4CN(C4CCC(=O)NC4=O)C5=O)cc3OC)nc2N1C1CCCC1` (stereo partly shown) [Compound 890], the IC50 was not above 0.1 µM.

Regarding `CC[C@@H]1C(=O)N(C)c2cnc(Nc3ccc(C(=O)NCCC#Cc4cccc5c4CN(C4CCC(=O)NC4=O)C5=O)cc3OC)nc2N1C1CCCC1` (stereo partly shown) [Compound 891], the IC50 was in the range of 0.1 to 1 µM.

Usually IC50 stands for the concentration that gives 50% inhibition.
